From patent publication US9011863B2, “Combinations of kinase inhibitors for the treatment of cancer” (Exelixis, Inc., priority 2010, dated 2015) come the findings set out here.

Where two headings read alike, the source gives them in different places.

Series [1] has as its system human breast cancer cell lines. Kind of series: three-dimensional (3D) growth in Matrigel. It is filed as cell-based. The settings on record: 3D Matrigel, 2.5% FBS, read-out: IC50 in cells tested in 3D. As to the method: Cells were seeded in 8-well chamber slides in growth-factor reduced Matrigel (BD Biosciences, San Jose Calif., USA)±compound A according to published methods. Fresh medium and drugs were replenished every third day. Colonies were photographed with an inverted light microscope with an ocular magnification of 10 times on the days recited in figures herein.
A panel of breast cancer cell lines with dysregulated PI3K activity was treated with increasing doses of compound A under two- and three-dimensional (2D and 3D) growth conditions. All experiments were conducted in 2.5% FBS-containing media, unless otherwise stated. […] This was further confirmed by immunoblot analysis of biomarkers of cell death and G1-S cell cycle transition in lysates from cells treated for 24 hours with compound A as shown in FIG. 10B.

In series [2] the test system is HER3, pHER3^Y1289, pAKT^S473. Kind of series: immunohistochemistry of BT474 xenografts. To be noted: day 28. It is filed as in vivo, mice. How it is done:
FIG. 18B depicts photomicrographs of immunohistochemistry sections from formalin-fixed, paraffin-embedded tumor blocks. Xenografts were harvested on day 28, 1 hour after the last dose of lapatinib and/or compound A. Antibodies used were against HER3, pHER3^Y1289, and pAKT^S473. Photographs were taken at 400× magnification (scale bar: 50 μm).
All tumor samples (collected within 1 hour of last treatment) were fixed in 10% neutral buffered formalin for 24 hours at room temperature, followed by dehydration and paraffin embedding. Immunostaining was done on 5-μm tissue sections. After deparaffinization in xylene and graded alcohols heat-induced antigen retrieval was performed in a pH 6.0 citrate buffer followed by incubation with 3% hydrogen peroxide for 20 minutes, with protein block (Dako) for 10 minutes, and finally with primary antibody overnight at 4° C. The Envision Visualization System (Dako, Carpinteria, Calif., USA) was used, followed by DAB as chromagen and counterstained with hematoxylin. Tumor sections were studied on a light microscope with an ocular magnification of 400 times. Average percentage and intensity of tumor cell staining was calculated as a histoscore (H-score) (as described in Goulding, H., et al. (1995), Hum. Pathol. 26:291-294, which is incorporated herein by reference in its entirety). An expert pathologist (MGK) scoring the sections was blinded to the type of treatment.
Using immunohistochemistry (IHC), experiments were performed to examine pharmacodynamic biomarkers of target inactivation in xenografts after 28 days of treatment. […] Therefore, experiments were performed to quantify differences in pAKT^S473 expression in both cytoplasmic and nuclear compartments in xenograft sections.

The procedure of series [3]: The lung cancer cell line A549 was selected for this study. […] Lung A549 cells were implanted s.c. in female Swiss nude mice using standard techniques. […] Control groups were left untreated. […]
For the evaluation of anti-tumor activity of conjugates, animals were weighed daily and tumors were measured twice weekly by caliper. A dosage producing a 20% weight loss at nadir (mean of group) or a 15% weight loss (mean of group) three successive times or drug deaths, was considered an excessively toxic dosage. Animal body weights included the tumor weights. Tumor weights were calculated using the formula mass (mg)=[length (mm)×width (mm)2]/2. The primary efficacy end points are ΔT/ΔT, percent median regression, partial and complete regressions (PR and CR), and Tumor free survivors (TFS). Changes in tumor volume for each treated (T) and control (C) were calculated for each tumor by subtracting the tumor volume on the day of first treatment (staging day) from the tumor volume on the specified observation day. The median ΔT was calculated for the treated group, and the median ΔT was calculated for the control group. Then the ratio ΔT/ΔT was calculated and expressed as a percentage: ΔT/ΔT=(delta T/delta C)×100. A dose is considered therapeutically active when ΔT/ΔT is lower than 40% and very active when ΔT/ΔT is lower than 10%. […] Percent tumor regression is defined as the percent of tumor volume decrease in the treated group at a specified observation day compared to its volume on the first day of first treatment. At a specific time point and for each animal, percent regression is calculated. The median percent regression is then calculated for the group. % regression (at t)=[volumet0−volumet/volument0]×100. Partial regression (PR): Regressions are defined as partial if the tumor volume decreases to 50% of the tumor volume at the start of treatment. Complete regression (CR): Complete regression is achieved when tumor volume=0 mm^3 (CR is considered when tumor volume cannot be recorded). TFS: Tumor free is defined as the animals with undetectable tumors at the end of the study (>100 days post last treatment).

Series [4] deals with HER3 mRNA. As to the kind of experiment: real-time qPCR of HER3 mRNA. It counts as cell-based, human. The settings on record: BT474, SKBR3, MDA453 cells; 6 μM; time course up to 48 hours. How it is done: FIG. 12B depicts a bar chart of timed HER3 mRNA transcription in BT474 cells which were treated with 2 μM 5J8, 20 μM LY294002, and 50 nM rapamycin for 10 hours prior to RNA isolation and qPCR analysis with HER3-specific primers.

Where [5] appears, read: Compound A PO 5 (160) mg/kg Q1Dx32.
The mark [6] stands for this setting: Compound A PO 100 (3200) mg/kg Q1Dx32.

For the molecule `COc1ccc(Cl)c(Nc2nc3ccccc3nc2NS(=O)(=O)c2cccc(NC(=O)C(C)(C)N)c2)c1` [Compound A], in series [1], the IC50 was at most 6 µM. Besides, in series [2], the “nuclear pAKT^S473 by IHC” value is listed as “statistically inhibited nuclear pAKT levels” and the “pHER3 by IHC” value is listed as “did not reduce membrane pHER3”. In series [3] (setting [5]), the “Average body weight change in % per mouse at nadir” value is given as −7.34%, the “Drug death (Day of death)” value is recorded as 0/7 and the day of nadir amounted to 65 days. Moreover, in series [3] (setting [6]), the “Average body weight change in % per mouse at nadir” value is −10.25%, the “Drug death (Day of death)” value was 0/7 and the day of nadir is 65 days. Besides, in series [3] (Compound A PO 100 (3200) mg/kg Q1Dx32, listed as compound A), the “Average body weight change in % per mouse at nadir” value is listed as −10.3%. In series [3] (compound A at 30 mg/kg PO daily), the “body weight loss at nadir” value is on record as −7.3%. In series [4], the “HER3 mRNA levels” value was “increase in HER3 mRNA that appeared maximal at 6 hours and was maintained up to 48 hours”.

A word on the IC50: it is the concentration at which inhibition is half-maximal.
